Laboratory results: patent US20260184700A1, “PDK1 REGULATORY COMPOUND AND COMPOSITION CONTAINING THE SAME” (PROVIBIO CO., LTD., priority 2024, published 2026)

Experiments:
[1] = system: HCT-116 colon cancer cell lines; assay: Invasion Assay using Matrigel, HCT-116; format: cell-based, human; conditions: HCT-116, Matrigel invasion, 24 hours treatment
Method: To evaluate the metastasis inhibitory efficacy of the compounds of the present invention on HCT-116 colon cancer cell lines, an Invasion Assay using Matrigel was performed to assess the cells' invasion ability.
First, Matrigel was thawed on ice in RPMI-1640 medium without FBS, then diluted with DMEM at a ratio of 1:20.
The diluted Matrigel mixture was applied to the upper chamber at 100 μl per well, and 750 μl of RPMI-1640 without FBS was added to the lower chamber.
The plates were then incubated at 37° C. for 1 hour to allow the Matrigel to solidify.
After coating, the Matrigel mixture in the upper chamber was removed using a pipette, and the chamber was washed with RPMI without FBS.
Human-derived colorectal cancer cell line HCT-116, obtained from the Korean Cell Bank, was cultured in RPMI-1640 medium containing 10% FBS.
Following stabilization, the cells were harvested using Trypsin-EDTA treatment, centrifuged at 1,200 rpm for 3 minutes, the supernatant was removed, and the cells were resuspended in the same medium, the medium in the lower chamber was replaced with 750 μl of RPMI-1640 supplemented with 10% FBS, and the cells were seeded into the upper chamber at a density of 5×10^4 cells/well.
The cells were cultured for 24 hours after attachment, and then the compounds according to the present invention (G078, G085, G086, G088, G089, PBK-2024-010, PBK-2025-010, PBK-2025-013, PBK-2025-016) and the control substance DMSO were diluted and added to the upper chamber after removing the medium.
Additionally, the medium in the lower chamber was replaced with fresh RPMI-1640 containing FBS, and the culture was continued.
After an additional 24 hours, the medium was removed, and 1 ml of methanol was added for 10 minutes to fix the cells.
Subsequently, 1 ml of Hematoxylin was added and reacted for 5 minutes, followed by 1 ml of Eosin, which was reacted for 30 seconds. The sample was then washed with distilled water (DW).
After staining was complete, any remaining cells in the upper chamber were removed. Finally, the infiltrated cells were observed under a microscope, photographed, and the degree of infiltration was analyzed.

[2] = system: T cells isolated from mouse spleen; assay: T cell proliferation inhibition, CFSE flow cytometry, CD3/CD28 activation; format: cell-based; conditions: CD3/CD28 activated, 3 days
Method: To verify the T cell proliferation inhibitory effect of the compounds according to the present invention, the following experiment was performed based on flow cytometry analysis using carboxyfluorescein diacetate succinimidyl ester (CFSE), a fluorescent dye that binds to intracellular molecules via covalent bonds.
Spleens were extracted from 7-week-old C57BL/6 mice, ground, and then separated into single cells using a strainer (40 μm pore size, SPL). Red blood cells were removed using ACK (Ammonium-Chloride-Potassium) lysis buffer to isolate white blood cells.
Finally, using a MACS Magnetic Stand and LS column, T cells were isolated from the spleen.
The T cells isolated from the spleen were resuspended in 1 mL of free medium (RPMI-1640+200 U/mL penicillin+200 μg/mL streptomycin), and 0.3 μL of CFSE (10 mM) was added. The mixture was incubated at 37° C. for 5 minutes.
Free medium (10 mL) was added to stop the reaction, and the cells were centrifuged to obtain the cell pellet.
RPMI 1640 medium containing 10% FBS, 100 U/mL penicillin, 100 μg/mL streptomycin, and resuspended the cells. The cells were then seeded into a 96-well plate at a density of 2×10^5 cells per well and activated with CD3 and CD28 antibodies (0.5 μg/mL each) to activate T cells.
The compound diluted in DMSO was added at concentrations of 10 nM, 100 nM, 1 μM, 10 μM, 30 μM, and 50 μM, with three wells per concentration, and cultured at 37° C. and 5% CO2 for three days. The cells were then analyzed using a FACS Canto instrument.
The proliferation inhibition rate (%) was calculated using the following formula: […]

[3] = system: Human B Lymphocyte cell line, SU-DHL-8; assay: Relative cell viability, CCK-8, SU-DHL-8; format: cell-based; conditions: 48 hours
Method: Human-derived B lymphoma cell line SU-DHL-8 (Cat. #CRL-2961) purchased from ATCC was cultured in RPMI-1640 medium containing 10% FBS, 100 U/mL penicillin, and 100 μg/mL streptomycin.
The cell culture medium was then harvested, centrifuged at 1,300 rpm for 5 minutes, and the supernatant was removed. The cells were resuspended in the same medium and dispensed into a 96-well plate (Costar 96-well cell culture plate, Corning) at 90 μL per well, resulting in the conditions specified in Table 5.
Then, 10 μL of CCK-8 was added to each well, and the plates were incubated again at 37° C. in a 5% CO2 incubator for 4 hours.
In other words, when the survival rate of untreated cells (DMSO) is set at 100%, the relative cell survival rate in each group treated with the drug at different concentrations is indicated.

Compound	number of infiltrated cells [1]	Proliferation inhibition rate (%) ([2]; compound 10 nM)	Proliferation inhibition rate (%) ([2]; compound 100 nM)	Proliferation inhibition rate (%) ([2]; compound 1 μM)	Proliferation inhibition rate (%) ([2]; compound 10 μM)	Proliferation inhibition rate (%) ([2]; compound 30 μM)	Proliferation inhibition rate (%) ([2]; compound 50 μM)	Relative cell viability (%) ([3]; SU-DHL-8, 1 μM)	Relative cell viability (%) ([3]; SU-DHL-8, 30 μM)	Relative cell viability (%) ([3]; SU-DHL-8, 50 μM)	Relative cell viability (%) ([3]; SU-DHL-8, 10 μM)
Nc1ncccc1C(=O)NCCCCCCCCCCCCN1CCNCC1 [Compound 5, 2-Amino-N-(12-(piperazin-1-yl)dodecyl)-nicotinamide]	reduction in the number of infiltrated cells	–	–	–	–	–	–	–	–	–	–
O=C(NCCCCCCCCCCCCN1CCN2CCCC2C1)c1cccnc1 (stereo not shown) [Compound 23, N-(12-(hexahydropyrrolo[1,2-a]pyrazin-2 (1H)-yl)dodecyl)nicotinamide]	reduction in the number of infiltrated cells	–	–	–	–	–	–	–	–	–	–
12-(4-hydroxypiperazin-1-yl)dodecyl-N-(6-aminopurazin-2-yl)carboxamide [Compound 10]	reduction in the number of infiltrated cells	100.00%	100.00%	100.00%	100.00%	100.00%	100.00%	–	–	–	–
CC(C)(C)OC(=O)N[C@H]1CCN(CCCCCCCCCCCCNC(=O)c2cccnc2N)C1 [Compound 49, tert-Butyl(S)-(1-(12-(2-aminonicotinamido)dodecyl)pyrrolidin-3-yl)carbamate]	reduction in the number of infiltrated cells	–	–	–	–	–	–	–	–	–	–
Nc1ncccc1C(=O)NCCCCCCCCCCCCN1CCC(F)C1 (stereo not shown) [Compound 26, 2-Amino-N-(12-(3-fluoropyrrolidin-1-yl)dodecyl) nicotinamide]	–	–	100.00%	100.00%	100.00%	100.00%	100.00%	1.70%	0.05%	–	–
Nc1ncccc1C(=O)NCCCCCCCCCCCCN1CC(F)C1 [Compound 52, 2-Amino-N-(12-(3-fluoroazetidin-1-yl)dodecyl)nicotinamide]	reduction in the number of infiltrated cells	–	–	–	–	–	–	–	–	–	–
Cc1ccc(OC2CCN(CCCCCCCCCCCCNC(=O)c3cccnc3N)CC2)cc1 [Compound 51, 2-Amino-N-(12-(4-(p-tolyloxy)piperidin-1-yl)dodecyl) nicotinamide]	–	0.77%	–	100.00%	100.00%	100.00%	100.00%	–	0.89%	0.48%	–
CC1CCN(CCCCCCCCCCCCNC(=O)c2cccnc2N)C1 (stereo not shown) [Compound 24, 2-Amino-N-(12-(3-methylpyrrolidin-1-yl)dodecyl) nicotinamide]	–	–	100.00%	100.00%	100.00%	100.00%	100.00%	–	0.62%	–	–
Nc1ncccc1C(=O)NCCCCCCCCCCCCN1CCC(Oc2ccncc2)CC1 [Compound 38, 2-Amino-N-(12-(4-(pyridin-4-yloxy)piperidin-1-yl)dodecyl) nicotinamide]	–	–	100.00%	100.00%	100.00%	100.00%	100.00%	–	–	–	3.30%
